Results as given in patent US20260125362A1, “TARGETED PROTEIN DEGRADATION OF PARP14 FOR USE IN THERAPY” (AbbVie Biotechnology Ltd, priority 2019, published 2026).

Assays:
[1] = biological target: T1, catalytic domain of human PARP14 (Homo sapiens, UniProt Q460N5); assay: Enzymatic assay for inhibition of PARP14 (DELFIA, auto-modification with biotin-NAD); type: biochemical; conditions: compounds corresponding to group Q
T1 construct: made in house; host or cells: Escherichia coli
T1 sequence (Q460N5 1611-1801): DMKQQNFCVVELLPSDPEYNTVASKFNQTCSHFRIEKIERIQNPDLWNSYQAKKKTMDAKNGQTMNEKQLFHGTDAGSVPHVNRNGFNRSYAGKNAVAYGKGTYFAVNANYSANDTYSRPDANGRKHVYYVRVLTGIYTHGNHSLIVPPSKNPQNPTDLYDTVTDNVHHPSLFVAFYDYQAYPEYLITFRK
Method: The catalytic domain of human PARP14 (residues 1611 to 1801, GenBank Accession No. NM_017554) was overexpressed in Escherichia coli cells. An N-teininal His-TEV fusion tag was used to purify the protein from cell lysates. The His-TEV tag was left on the protein for use in the enzymatic assay.
Enzymatic inhibition of PARP14 was measured using a dissociation-enhanced lanthanide fluorescence immunoassay (DELFIA) monitoring the auto-modification of PARP14 by biotinylated nicotinamide adenine dinucleotide (biotin-NAD), 1 μL of a dose response curve of each test compound was spotted in 384-well nickel-coated white microplates (Therno) using a Mosquito (TTP Labtech). Reactions were performed in a 50 p L volume by adding 40 μL of PARP14 in assay buffer (20 mM HEPES pH=8, 100 mM NaCl, 0.1% bovine serum albumin. 2 mM DTT and 0.002% Tween20), incubating with test compound at 25° C. for 30 min, then adding 10 μL of biotin-NA D (Biolog). The final concentrations of PARP14 and biotin-NAD are 50 nM and 3 μM, respectively. Reactions proceeded at 25° C. for 3 h, then were quenched with 5 μL of 10 mM unmodified nicotinamide adenine dinucleotide (Sigma-Aldrich). The quenched reactions were washed 3 times with 100 μL of TBST wash buffer (50 mM Tris-HCl, 150 mnM NaCl and 0.1% Tween20). Next, to the washed and dried plate was added 25 μL of DELFIA Europium-NI streptavidin (Perkin Elmer) diluted in DELFIA assay buffer (Perkin Elmer). After a 30 min incubation at 25° C., the plate was washed 5 times with TBST wash buffer. Finally, 25 μL of DELFIA enhancement solution was added. After a 5 min incubation the plate was read on an Envision platereader equipped with a LANCE/DELFIA top mirror (Perkin Elmer) using excitation of 340 nm and emission of 615 nm to measure the amount of Europium present in each well, informing on the amount of biotin-NAD that was transferred in the automodification reaction. Control wells containing a negative control of 2% DMSO vehicle or a positive control of 100 μM rucaparib were used to calculate the % inhibition as described below:
where ex615cmpd is the emission from the compound treated well, ex615min, is the emission from the rucaparib treated positive control well and ex615max is the emission from the DMSO treated negative control well.
The % inhibition values were plotted as a function of compound concentration and the following 4-parameter fit was applied to derive the IC50 values:
where top and bottom are normally allowed to float, but may be fixed at 100 or 0 respectively in a 3-parameter fit. The Hill Coefficient is normally allowed to float but may also be fixed at 1 in a 3-parameter fit. Y is the % inhibition and X is the compound concentration.

PARP14 = biological target: T2, PARP14 (Homo sapiens, UniProt Q460N5); assay: PARP14 degradation assay (Western blot) in KYSE270 cells; type: cell-based; conditions: 24 h
T2 construct: endogenous in cells; host or cells: KYSE270
T2 sequence (Q460N5 whole entry): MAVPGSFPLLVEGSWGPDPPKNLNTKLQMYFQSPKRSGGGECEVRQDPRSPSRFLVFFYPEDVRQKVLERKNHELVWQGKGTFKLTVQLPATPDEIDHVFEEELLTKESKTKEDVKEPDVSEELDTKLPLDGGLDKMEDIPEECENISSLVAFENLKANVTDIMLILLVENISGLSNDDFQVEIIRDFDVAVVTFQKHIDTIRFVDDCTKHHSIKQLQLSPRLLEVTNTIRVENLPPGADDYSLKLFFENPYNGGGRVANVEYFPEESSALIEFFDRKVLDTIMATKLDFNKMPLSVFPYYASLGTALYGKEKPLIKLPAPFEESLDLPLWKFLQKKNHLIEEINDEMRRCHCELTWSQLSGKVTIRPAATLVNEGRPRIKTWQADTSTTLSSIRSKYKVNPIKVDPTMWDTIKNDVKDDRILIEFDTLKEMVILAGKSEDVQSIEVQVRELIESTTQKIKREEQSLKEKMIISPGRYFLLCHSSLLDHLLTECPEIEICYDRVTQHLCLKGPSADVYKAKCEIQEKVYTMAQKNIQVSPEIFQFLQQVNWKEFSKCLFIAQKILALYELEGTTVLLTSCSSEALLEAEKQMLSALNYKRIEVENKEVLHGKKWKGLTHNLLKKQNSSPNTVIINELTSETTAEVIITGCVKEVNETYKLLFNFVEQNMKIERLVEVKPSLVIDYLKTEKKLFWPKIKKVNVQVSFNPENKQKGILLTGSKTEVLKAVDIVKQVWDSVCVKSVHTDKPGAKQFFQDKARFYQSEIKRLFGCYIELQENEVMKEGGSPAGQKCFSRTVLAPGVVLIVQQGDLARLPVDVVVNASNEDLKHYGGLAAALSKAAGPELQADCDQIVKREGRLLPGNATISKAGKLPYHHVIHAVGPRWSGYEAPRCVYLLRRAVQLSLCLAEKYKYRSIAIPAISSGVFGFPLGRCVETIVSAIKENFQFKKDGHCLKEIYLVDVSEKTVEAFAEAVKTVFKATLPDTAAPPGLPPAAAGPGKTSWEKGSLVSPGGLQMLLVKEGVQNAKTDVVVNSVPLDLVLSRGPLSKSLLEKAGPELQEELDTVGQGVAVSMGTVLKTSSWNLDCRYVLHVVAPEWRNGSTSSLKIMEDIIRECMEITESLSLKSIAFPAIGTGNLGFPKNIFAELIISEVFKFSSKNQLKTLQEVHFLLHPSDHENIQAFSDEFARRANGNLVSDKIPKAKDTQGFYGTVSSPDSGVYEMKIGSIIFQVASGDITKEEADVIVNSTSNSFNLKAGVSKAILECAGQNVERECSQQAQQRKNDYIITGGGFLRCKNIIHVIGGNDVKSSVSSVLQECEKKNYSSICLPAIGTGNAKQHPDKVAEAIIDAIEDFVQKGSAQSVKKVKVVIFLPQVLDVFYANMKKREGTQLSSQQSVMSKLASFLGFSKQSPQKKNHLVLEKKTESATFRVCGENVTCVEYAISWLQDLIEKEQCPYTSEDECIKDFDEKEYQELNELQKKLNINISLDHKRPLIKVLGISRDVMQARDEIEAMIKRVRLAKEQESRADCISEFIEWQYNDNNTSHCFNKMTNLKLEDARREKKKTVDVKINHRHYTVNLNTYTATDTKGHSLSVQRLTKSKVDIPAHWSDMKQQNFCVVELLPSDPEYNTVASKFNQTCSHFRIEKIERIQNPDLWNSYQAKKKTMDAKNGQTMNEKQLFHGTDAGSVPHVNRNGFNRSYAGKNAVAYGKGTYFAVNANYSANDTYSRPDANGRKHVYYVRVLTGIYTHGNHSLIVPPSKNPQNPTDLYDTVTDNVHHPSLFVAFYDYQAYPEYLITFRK
Method: KYSE270 cells were seeded at a density of […] in 6-well plates and incubated overnight. Once attached, cells were treated with the compounds of Examples 1-4 at increasing concentrations (0.001 μM, 0.01 μM, 0.1 μM, 1 μM, and 10 μM; 0.003 μM, 0.03 μM, 0.3 μM, and 3 μM were also evaluated for the compound of Example 1), or with DMSO for 24 h. Media was gently aspirated and cells washed 3 times with 2 mL of ice cold PBS while on ice. The PBS was completely aspirated and 75 μl freshly prepared lysis buffer (Thermo Fisher 78501) was added to cells before scraping into the buffer. Lysates were collected in microcentrifuge tubes and incubated on ice for 15 minutes. Lysates were centrifuged at 10,000 rpm for 15 min at 4° C. and supernatants collected into fresh microcentrifuge tubes. Protein concentration was measured using a reducing agent compatible with the Pierce BCA Protein Assay Kit (Thermo Fisher 23250). Samples were prepared in loading buffer (LI-COR 928-40004) containing 5% β-mercaptoethanol, and incubated at 95° C. for 5 min. Protein lysates were resolved on 4-12% Tris-Acetate gels in MOPS running buffer with 60 μg of protein per well. Western blot transfers were done with PVDF membranes (LI-COR Immobilon) with 20 volts for 14 minutes. Primary antibodies (PARP14: in house generated mouse antibody (15A6 LotIC), β-actin: D6A8 (8457)) were incubated at 1:1,000 dilution using the odyssey blocking buffer (LI-COR 927-50000) for 2 h at room temperature and detected with secondary antibody (LI-COR 926-68072, 926-32211). Mouse antibody 15A6 Lot1C was generated by immunizing with recombinant human PARP14 catalytic domain protein. After hybridoma fusion, the parental clones were screened for reactivity against PARP14 catalytic domain, which were then subcloned to generate monoclones including 15A6-1. Monoclonal supernatants were tested by Western blotting against THP-1 and THP-1 PARP14 KO cells to confirm reactivity. The PARP14 antibody was produced by culturing the 15A6-1 hybridoma monoclone in 1L of serum free media+2% low IgG FBS. […]

IL-10 production = assay: Reduction of IL-10 production in IL-4 stimulated M2-like macrophages (ELISA); type: cell-based; conditions: IL-4 stimulated M2-like macrophages from human monocytes; 1, 0.1 or 0.01 μM
Method: Monocytes were isolated from peripheral human blood and cultured in the presence of M-CSF and the compound of Example 1 (at 1, 0.1 or 0.01 μM) for 72 h. M-CSF differentiates monocytes into M-0 macrophages. Subsequently medium was replaced with fresh medium containing IL-4 and the compound of Example 1 (at 1, 0.1 or 0.01 μM), and cells were incubated for another 48 h. Isolation of primary human monocytes from whole blood: Primary monocytes were isolated from whole blood (iSPECIMEN; 500 mL) collected from healthy donors. Blood was diluted at a 1:1 ratio with EasySep buffer (STEMCELL Technologies 20144) and layered onto lymphoprep (STEMCELL Technologies 07811) in SepMate tubes (STEMCELL Technologies 85450) for PBMC isolation according to the manufacturer's instructions. […] Cells were treated with the compound of Example 1 or DMSO on day 6 after seeding at 1 μmol/L, 0.1 μmol/L, and 0.01 μmol/L. IL-10 determination: Levels of IL-10 in the supernatants of human primary M2 macrophages were determined with the IL-10 ELISA kit (STEMCELL Technologies 02013) according to the manufacturer's instructions. Briefly, supernatants were collected at the indicated time point and depleted of any floating cells before being stored at −80° C. until ready to use. IL-10 concentrations were determined from the kit's IL-10 standard curve and normalized to total cell protein.

O=c1[nH]c(CSC2CCNCC2)nc2cc(NC3CCCC3)cc(F)c12
IC50 [1]: < 1000 nM

O=c1[nH]c(CSC2CCC(O)CC2)nc2cc(OCC3CCCOC3)cc(F)c12 (centres unmarked)
IC50 [1]: < 1000 nM

O=c1[nH]c(CS[C@H]2CC[C@H](O)CC2)nc2cc(OCC3CCOCC3)cc(F)c12
IC50 [1]: < 1000 nM

O=c1[nH]c(CS[C@H]2CC[C@@H](O)CC2)nc2cc(OCC3CCOCC3)cc(F)c12
IC50 [1]: < 1000 nM

O=C(CN1CCC(SCc2nc3cc(NC4CCCC4)cc(F)c3c(=O)[nH]2)CC1)NCCCCCCNc1cccc2c1C(=O)N(C1CCC(=O)NC1=O)C2=O.O=C(O)C(F)(F)F (centres unmarked) [Example 1, 2-(4-(((7-(Cyclopentylamino)-5-fluoro-4-oxo-3,4-dihydroquinazolin-2-yl)methyl)thio)piperidin-1-yl)-N-(6-((2-(2,6-dioxopiperidin-3-yl)-1,3-dioxoisoindolin-4-yl)amino)hexyl)acetamide trifluoroacetate]
hook effect at higher concentrations (PARP14 degradation) (PARP14): amelioration of efficacy
IL-10 production (IL-10 levels in tissue culture supernatant, ELISA) (IL-10 production): decreased IL-10 production

O=C1CCC(N2C(=O)c3cccc(NCCCCCCCC(=O)N[C@H]4CC[C@H](SCc5nc6cc(OCC7CCOCC7)cc(F)c6c(=O)[nH]5)CC4)c3C2=O)C(=O)N1 (some centres unmarked) [Example 3, 8-((2-(2,6-dioxopiperidin-3-yl)-1,3-dioxoisoindolin-4-yl)amino)-N-((1r,4r)-4-(((5-fluoro-4-oxo-7-((tetrahydro-2H-pyran-4-yl)methoxy)-3,4-dihydroquinazolin-2-yl)methyl)thio)cyclohexyl)octanamide]
hook effect at higher concentrations (PARP14 degradation) (PARP14): amelioration of efficacy

O=C1CCC(N2C(=O)c3cccc(NCCC(=O)N[C@H]4CC[C@H](SCc5nc6cc(OCC7CCOCC7)cc(F)c6c(=O)[nH]5)CC4)c3C2=O)C(=O)N1 (some centres unmarked) [Example 4, 3-((2-(2,6-dioxopiperidin-3-yl)-1,3-dioxoisoindolin-4-yl)amino)-N-((1r,4r)-4-(((5-fluoro-4-oxo-7-((tetrahydro-2H-pyran-4-yl)methoxy)-3,4-dihydroquinazolin-2-yl)methyl)thio)cyclohexyl)propanamide]
hook effect at higher concentrations (PARP14 degradation) (PARP14): amelioration of efficacy
